Measured values: patent US11395857B2, “Radiolabeled melanocortin 1 receptor-specific alpha-melanocyte-stimulating hormone analogues for imaging or therapy” (PROVINCIAL HEALTH SERVICES AUTHORITY, priority 2018, dated 2022)
One block for each compound: values may come before it.

What was measured:
[1] = Biodistribution of 177Lu-labeled αMSH analogues in mice bearing SK-MEL-1 human melanoma; settings: male, mouse, total radioactivity; for tissue to tissue ratio at 1 h: 1 h p.i.; for tissue to tissue ratio at 1 h / tissue to tissue ratio at 4 h / tissue to tissue ratio at 24 h / tissue to tissue ratio at 120 h: NRG mice, SK-MEL-1 melanoma; for tissue to tissue ratio at 4 h: 4 h p.i.; for tissue to tissue ratio at 24 h: 24 h p.i.; for tissue to tissue ratio at 120 h: 120 h p.i.
Protocol: The SK-MEL-1 human melanoma cell line (HTB-67) was obtained commercially from ATCC. SK-MEL-1 cells were cultured in Eagle's Minimum Essential Medium (StemCell Technologies) under the same conditions as described in Example 1. Immunodeficient NOD.Cg-Rag1tm1Mom I12rgtm1Wjl/SzJ (NRG) male mice were obtained from an in-house breeding colony at the BC Cancer Research Centre. For tumor implantation, male NRG mice were anesthetized by inhalation with 2% isoflurane, and 5 million SK-MEL-1 cells were inoculated subcutaneously on the right dorsal flank. Mice were used for imaging or biodistribution studies when the tumors reached 6-8 mm in diameter in 16-20 days.
Biodistribution studies were performed as described in Example 3.

[2] = In vivo stability in mouse urine at 1 h p.i. (radio-HPLC); design: species or system C57BL/6J mice
Protocol: All animal experiments were conducted in according to the guidelines established by Canadian Council on Animal Care and approved by Animal Ethics Committee of the University of British Columbia. Mice were housed under pathogen-free conditions and kept on twelve hours light and twelve hours dark cycle in the Animal Research Centre, BC Cancer Research Centre, Vancouver, Canada. C57BL/6J mice were anesthetized by inhalation with 2% isoflurane in 2.0 L/min of oxygen, and approximately 4-6 MBq of [^68Ga]Ga-CCZ01099 or [^68Ga]Ga-CCZ01048 was injected intravenously. The mice were allowed to recover and roam freely in their cages. At 1 h post-injection (p.i.), the mice were euthanized by CO2 inhalation and their urine was collected and analyzed on HPLC for metabolite using the conditions described above. In vivo urine stability of [^68Ga]Ga-CCZ01099 and [^68Ga]Ga-CCZ01048 were 34.0±10.4% and ≥98.0% (n≥3), respectively.
The in vivo stability tests in mouse urine were performed as described in Example 1. […] With systematic reduction in the number of N-methylations for the αMSH analogues, a decrease in in vivo stability was observed.

[3] = NRG (NOD.Cg-Rag1tm1Mom I12rgtm1Wjl/SzJ), fat, iv
[4] = NRG (NOD.Cg-Rag1tm1Mom I12rgtm1Wjl/SzJ), seminal glands, iv
[5] = NRG (NOD.Cg-Rag1tm1Mom Il2rgtm1Wjl/SzJ), SK-MEL-1 tumour
[6] = NRG (NOD.Cg-Rag1tm1Mom Il2rgtm1Wjl/SzJ), adrenal glands
[7] = NRG (NOD.Cg-Rag1tm1Mom Il2rgtm1Wjl/SzJ), blood
[8] = NRG (NOD.Cg-Rag1tm1Mom Il2rgtm1Wjl/SzJ), bone
[9] = NRG (NOD.Cg-Rag1tm1Mom Il2rgtm1Wjl/SzJ), brain
[10] = NRG (NOD.Cg-Rag1tm1Mom Il2rgtm1Wjl/SzJ), heart
[11] = NRG (NOD.Cg-Rag1tm1Mom Il2rgtm1Wjl/SzJ), intestine
[12] = NRG (NOD.Cg-Rag1tm1Mom Il2rgtm1Wjl/SzJ), kidneys
[13] = NRG (NOD.Cg-Rag1tm1Mom Il2rgtm1Wjl/SzJ), liver
[14] = NRG (NOD.Cg-Rag1tm1Mom Il2rgtm1Wjl/SzJ), lungs
[15] = NRG (NOD.Cg-Rag1tm1Mom Il2rgtm1Wjl/SzJ), muscle
[16] = NRG (NOD.Cg-Rag1tm1Mom Il2rgtm1Wjl/SzJ), pancreas
[17] = NRG (NOD.Cg-Rag1tm1Mom Il2rgtm1Wjl/SzJ), spleen
[18] = NRG (NOD.Cg-Rag1tm1Mom Il2rgtm1Wjl/SzJ), stomach
[19] = NRG (NOD.Cg-Rag1tm1Mom Il2rgtm1Wjl/SzJ), testes
[20] = NRG (NOD.Cg-Rag1tm1Mom Il2rgtm1Wjl/SzJ), thyroid
[21] = NRG (NOD.Cg-Rag1tm1Mom Il2rgtm1Wjl/SzJ), tumour/blood
[22] = NRG (NOD.Cg-Rag1tm1Mom Il2rgtm1Wjl/SzJ), tumour/kidney
[23] = NRG (NOD.Cg-Rag1tm1Mom Il2rgtm1Wjl/SzJ), tumour/muscle
[24] = NRG (NOD.Cg-Rag1tm1Mom Il2rgtm1Wjl/SzJ), urine

tissue uptake at 1 h [1, 3]: 1.18 ± 0.08 %ID/g
tissue uptake at 4 h [1, 3]: 0.45 ± 0.26 %ID/g
tissue uptake at 24 h [1, 3]: 0.1 ± 0.05 %ID/g
tissue uptake at 120 h [1, 3]: 0.08 ± 0.02 %ID/g
tissue uptake at 1 h [1, 4]: 0.59 ± 0.08 %ID/g
tissue uptake at 4 h [1, 4]: 1.53 ± 2.82 %ID/g
tissue uptake at 24 h [1, 4]: 0.06 ± 0.01 %ID/g
tissue uptake at 120 h [1, 4]: 0.03 ± 0.01 %ID/g
tissue uptake at 1 h [1, 5]: 10.5 ± 3.29 %ID/g
tissue uptake at 4 h [1, 5]: 14 ± 2.36 %ID/g
tissue uptake at 24 h [1, 5]: 10.1 ± 2.13 %ID/g
tissue uptake at 120 h [1, 5]: 4.8 ± 0.26 %ID/g
tissue uptake at 1 h [1, 6]: 2.99 ± 2.15 %ID/g
tissue uptake at 4 h [1, 6]: 1.21 ± 0.59 %ID/g
tissue uptake at 24 h [1, 6]: 0.27 ± 0.13 %ID/g
tissue uptake at 120 h [1, 6]: 0.3 ± 0.16 %ID/g
tissue uptake at 1 h [1, 7]: 9.63 ± 0.78 %ID/g
tissue uptake at 4 h [1, 7]: 2.46 ± 0.64 %ID/g
tissue uptake at 24 h [1, 7]: 0.07 ± 0.03 %ID/g
tissue uptake at 120 h [1, 7]: 0.02 %ID/g
tissue uptake at 1 h [1, 8]: 1.1 ± 0.5 %ID/g
tissue uptake at 4 h [1, 8]: 0.35 ± 0.08 %ID/g
tissue uptake at 24 h [1, 8]: 0.15 ± 0.02 %ID/g
tissue uptake at 120 h [1, 8]: 0.26 ± 0.39 %ID/g
tissue uptake at 1 h [1, 9]: 0.17 ± 0.02 %ID/g
tissue uptake at 4 h [1, 9]: 0.06 ± 0.01 %ID/g
tissue uptake at 24 h [1, 9]: 0.01 %ID/g
tissue uptake at 120 h [1, 9]: 0.01 %ID/g
tissue uptake at 1 h [1, 10]: 2.5 ± 0.3 %ID/g
tissue uptake at 4 h [1, 10]: 0.84 ± 0.23 %ID/g
tissue uptake at 24 h [1, 10]: 0.14 ± 0.04 %ID/g
tissue uptake at 120 h [1, 10]: 0.08 ± 0.02 %ID/g
tissue uptake at 1 h [1, 11]: 1.42 ± 0.22 %ID/g
tissue uptake at 4 h [1, 11]: 0.79 ± 0.5 %ID/g
tissue uptake at 24 h [1, 11]: 0.19 ± 0.03 %ID/g
tissue uptake at 120 h [1, 11]: 0.08 ± 0.01 %ID/g
tissue uptake at 1 h [1, 12]: 13.4 ± 2.53 %ID/g
tissue uptake at 4 h [1, 12]: 12.8 ± 2.29 %ID/g
tissue uptake at 24 h [1, 12]: 6.48 ± 1.25 %ID/g
tissue uptake at 120 h [1, 12]: 1.69 ± 0.13 %ID/g
tissue uptake at 1 h [1, 13]: 6.91 ± 1.09 %ID/g
tissue uptake at 4 h [1, 13]: 5.77 ± 1.62 %ID/g
tissue uptake at 24 h [1, 13]: 4.36 ± 1.11 %ID/g
tissue uptake at 120 h [1, 13]: 2.42 ± 0.33 %ID/g
tissue uptake at 1 h [1, 14]: 6.59 ± 1.06 %ID/g
tissue uptake at 4 h [1, 14]: 2.5 ± 0.67 %ID/g
tissue uptake at 24 h [1, 14]: 0.86 ± 0.87 %ID/g
tissue uptake at 120 h [1, 14]: 0.15 ± 0.12 %ID/g
tissue uptake at 1 h [1, 15]: 0.98 ± 0.12 %ID/g
tissue uptake at 4 h [1, 15]: 0.36 ± 0.11 %ID/g
tissue uptake at 24 h [1, 15]: 0.05 ± 0.01 %ID/g
tissue uptake at 120 h [1, 15]: 0.02 ± 0.01 %ID/g
tissue uptake at 1 h [1, 16]: 1.4 ± 0.24 %ID/g
tissue uptake at 4 h [1, 16]: 0.49 ± 0.08 %ID/g
tissue uptake at 24 h [1, 16]: 0.1 ± 0.02 %ID/g
tissue uptake at 120 h [1, 16]: 0.05 %ID/g
tissue uptake at 1 h [1, 17]: 3.06 ± 0.53 %ID/g
tissue uptake at 4 h [1, 17]: 1.45 ± 0.33 %ID/g
tissue uptake at 24 h [1, 17]: 1.2 ± 0.56 %ID/g
tissue uptake at 120 h [1, 17]: 0.98 ± 0.29 %ID/g
tissue uptake at 1 h [1, 18]: 0.56 ± 0.1 %ID/g
tissue uptake at 4 h [1, 18]: 0.44 ± 0.25 %ID/g
tissue uptake at 24 h [1, 18]: 0.36 ± 0.2 %ID/g
tissue uptake at 120 h [1, 18]: 0.13 ± 0.05 %ID/g
tissue uptake at 1 h [1, 19]: 1.58 ± 0.32 %ID/g
tissue uptake at 4 h [1, 19]: 0.84 ± 0.2 %ID/g
tissue uptake at 24 h [1, 19]: 0.22 ± 0.04 %ID/g
tissue uptake at 120 h [1, 19]: 0.16 ± 0.04 %ID/g
tissue uptake at 1 h [1, 20]: 4.03 ± 0.45 %ID/g
tissue uptake at 4 h [1, 20]: 3.11 ± 0.46 %ID/g
tissue uptake at 24 h [1, 20]: 2.49 ± 0.64 %ID/g
tissue uptake at 120 h [1, 20]: 1.83 ± 0.21 %ID/g
tissue to tissue ratio at 1 h [1, 21]: 1.08 ± 0.3
tissue to tissue ratio at 4 h [1, 21]: 5.84 ± 0.96
tissue to tissue ratio at 24 h [1, 21]: 165 ± 50.1
tissue to tissue ratio at 120 h [1, 21]: 246 ± 28.6
tissue to tissue ratio at 1 h [1, 22]: 0.77 ± 0.12
tissue to tissue ratio at 4 h [1, 22]: 1.1 ± 0.08
tissue to tissue ratio at 24 h [1, 22]: 1.55 ± 0.1
tissue to tissue ratio at 120 h [1, 22]: 2.85 ± 0.22
tissue to tissue ratio at 1 h [1, 23]: 10.6 ± 2.98
tissue to tissue ratio at 4 h [1, 23]: 41.5 ± 9.8
tissue to tissue ratio at 24 h [1, 23]: 201 ± 10.4
tissue to tissue ratio at 120 h [1, 23]: 269 ± 79.1
excreta dose per gram or mL at 1 h [1, 24]: 376 ± 154 %ID/g
excreta dose per gram or mL at 4 h [1, 24]: 154 ± 39.2 %ID/g
excreta dose per gram or mL at 24 h [1, 24]: 5.39 ± 1.23 %ID/g
excreta dose per gram or mL at 120 h [1, 24]: 1.12 ± 0.38 %ID/g
SMILES: CCCC[C@H](NC(=O)CN1CCC(NC(=O)[C@H](CCCCNC(=O)CN2CCN(CC(=O)O)CCN(CC(=O)O)CCN(CC(=O)O)CC2)NC(=O)[C@H](CCC(=O)O)NC(=O)CCCc2ccc(I)cc2)CC1)C(=O)N[C@H]1CC(=O)NCCCC[C@@H](C(N)=O)N(C)C(=O)[C@H](Cc2c[nH]c3ccccc23)NC(=O)[C@H](CCCNC(=N)N)N(C)C(=O)[C@@H](Cc2ccccc2)NC(=O)[C@H](Cc2c[nH]cn2)NC1=O [^177Lu-labeled CCZ01118, metal not drawn]

In vivo urine stability, intact tracer [2]: 34.0±10.4%
SMILES: CCCC[C@H](NC(=O)CN1CCC(NC(=O)CN2CCN(CC(=O)O)CCN(CC(=O)O)CCN(CC(=O)O)CC2)CC1)C(=O)N[C@H]1CC(=O)NCCCC[C@@H](C(N)=O)N(C)C(=O)[C@H](Cc2c[nH]c3ccccc23)N(C)C(=O)[C@H](CCCNC(=N)N)N(C)C(=O)[C@@H](Cc2ccccc2)NC(=O)[C@H](Cc2c[nH]cn2)N(C)C1=O [^68Ga-labeled CCZ01099, metal not drawn]
